Oligonucleotides are written 5' to 3', each unit as a sugar letter and its base; * is a phosphorothioate linkage, no mark a phosphodiester; rarer units and linkages stand in square brackets, end groups in braces. Plain capitals give the bases only. m = 2'-O-methyl; r = 2'-OH (RNA); f = 2'-fluoro

Series [1] deals with INF-α. The series can be described thus: PBMC cytokine release assay, INF-α (ELISA). Conditions: 10 nM, 24 hours; for immunostimulatory activity (INF-α) compared with Rag1-40, in words: PBMC.
Method: Cells were treated with the indicated duplexes at a final concentration of 10 nM or lipopolysaccharide (LPS) as a positive control for 24 hours, respectively. The levels of INF-α and TNF-α in the cell supernatant were detected by ELISA kit. […] Data represent mean±SD of two independent experiments.
Human peripheral blood mononuclear cells (Allcells, Alameda, CA) were seeded in a 96-well microplate at a density of approximately 10×10^4 cells/well. Transfection of dsRNA was performed using RNAiMAX (Invitrogen, Carlsbad, CA) following manufacturer's instructions. Supernatants were collected 24 hours after transfection and immediately assayed for IFN-α and TNF-α production using ELISA kit (R&D Systems). Each treatment group was analyzed in triplicate.
To assess the immunostimulatory effect of chemically modified saRNAs, human peripheral blood mononuclear cells (PBMC) from healthy donors were incubated with the double-stranded saRNAs, and INF-α and TNF-α levels in the supernatant of treated cells after 24 hours were measured.
Series [2] concerns Rag1-40 target sequence in the 3′ UTR of firefly luciferase, COS-1 cells. The series can be described thus: Analysis of off-target effects (pOff-Target dual luciferase reporter in COS-1 cells). Conditions: lysed 48 hours after transfection, luciferase activity. In general terms: In a reporter assay the amount or activity of a reporter protein is the signal.
In series [3] the test system is T24 cells. Briefly: Cellular proliferation assay (CCK8) in T24 cells, alone and combined with Mitomycin C or valrubicin. As to conditions: T24 cells, 10 nM, 72 hours, CCK8. It is filed as cell-based, human. From the text:
(§1) After the transfection, the number of viable cells was detected with a CCK8 kit, and plotted as the percentage of the blank control treatment group. […] A transfection sample without oligonucleotide served as a blank control. Non-specific duplex (dsCon) transfected sample served as a negative control. Data are presented as mean±SD of at least two independent experiments. The values below the dashed line indicate stronger growth inhibitory activity compared to duplex Rag1-40 without chemical modification.
T24 cells were transfected with RAG1-40-31 at concentrations of 0.1, 0.5, 1, 5, 10, 25 and 50 nM for 24 hours, and then Mitomycin C was added at concentrations of 1, 10, 100, 1000 and 10000 nM. The combined treatment was carried out with concentrations in pairs. After treatment, the cellular proliferation was detected by CCK8 kit. FIGS. 16A-16B show the relative proliferation proportion of T24 cells after the combined treatment with chemically modified saRNA RAG1-40-31 and valrubicin. […] Control and DMSO are the blank transfection control and the solvent for dilution control, respectively.
T24 cells were transfected with RAG1-40-31 at concentrations of 0.1, 0.5, 1, 5, 10, 25 and 50 nM for 24 hours, and then valrubicin at concentrations of 1, 10, 100, 1000 and 10000 nM was added. The combined treatment was carried out with concentrations in pairs. After treatment, the cellular proliferation was detected by CCK8 kit.
(§2) Human bladder cancer cells Ku-7-LG (ATCC), J82 (ATCC) and T24 (ATCC) were cultured in McCoy medium (Gibco) comprising 10% calf serum (Sigma-Aldrich) and 1% penicillin/Streptomycin (Gibco). Cells were cultured at 37° C. under 5% CO2. Ku-7-LG, J82 and T24 cells were plated into 12-well plates at 10×10^4 cells per well, transfected with the small RNA at a concentration of 10 nM (unless otherwise specified) for three days, using RNAiMax (Invitrogen, Carlsbad, CA) according to the manufacturer's instructions. Two replicate wells were set for each treatment.
(§3) Cells were plated in a 96-well plate at 2˜4×10^3 cells/well, cultured overnight, and transfected with the oligonucleotide duplexes. Three days after transfection, CCK8 (Dojindo) was used to detect cellular proliferation following manufacturer's instructions. The experimental steps are briefly described as follows: 10 μL of CCK8 solution was added to each well, incubated at 37° C. for 1 hour, and then the absorbance at 450 nm was measured using a microplate reader.
(§4) It is known that p21 induction by saRNA is that a variety of tumor suppressor factors such as p21 protein suppress the proliferation of cancer cells. To evaluate the effect of chemically modified saRNAs on the function of cancer cells, cells (Ku-7-LG and T24) were transfected with 10 nM unmodified and modified saRNAs for 72 hours, and the cellular proliferation was determined by CCK8. […] Furthermore, there was a correlation between RNA activating activity (FIGS. 7A-7B) and suppression of cellular proliferation activity (FIGS. 8A-8B). Strong p21 activators are usually also strong cytostatics.

The target of series [4] is T1, RNase A (Bos taurus, UniProt P61823).
T1 sequence (P61823 27-150): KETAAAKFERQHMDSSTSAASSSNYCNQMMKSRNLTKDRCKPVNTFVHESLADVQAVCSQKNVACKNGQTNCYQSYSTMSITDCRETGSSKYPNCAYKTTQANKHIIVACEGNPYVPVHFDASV
Briefly: saRNA stability analysis in the presence of RNase A (agarose gel). Conditions: incubation 0 to 96 hours.
Method: The duplexes obtained at each time point above were each added to 1 μL of 10× loading buffer, and then frozen in liquid nitrogen. After incubation, all samples were detected for the double-stranded RNA by 4% agarose gel electrophoresis, and the content of each duplex was analyzed by Image J software.
The duplexes obtained at each time point indicated above were each added to 1 μL of 10× loading buffer, and then frozen in liquid nitrogen. After incubation, all samples were detected for the double-stranded RNA by 4% agarose gel electrophoresis, and the content of each duplex was analyzed by Image J software.
saRNA (1.5 μL, 10 μM) was incubated at a final concentration of 0.02 mg/mL in PBS in the presence of RNase A (Amresco, OH, USA) at 37° C. for different durations. At the end of the incubation, the mixture was snap frozen in liquid nitrogen to stop nuclease activity. Samples were analyzed on a 4% agarose gel and examined for duplex degradation.
All chemically modified duplexes (Rag1-40-1 to Rag1-40-32) were incubated with 0.02 μg/L of RNase A for different durations (0 to 96 hours). At the end of the incubation, the size and amount of duplexes were detected by agarose gel electrophoresis.

Series [5] relates to Ku-7-LG cells. The series can be described thus: Cellular proliferation assay (CCK8) in Ku-7-LG cells. It is filed as cell-based, human. Conditions: 10 nM, 72 hours. The method, then:
Ku-7-LG cells were transfected with the indicated saRNA at 10 nM for 3 days. […] The closer the luciferase value is to the control group, the lower the probability of off-target effects of saRNA is. Control and dsCon2 were blank transfection and double-stranded scramble RNA transfection, respectively. The value of the ordinate represents the mean±SD of two repeated treatments.
as §1, §2, §3, §4

As to “RAG1-IS-1: RNA duplex known to have strong immunostimulatory activity, positive control: S GUCAUCACACUGAAUACCAAU (SEQ ID NO 20), AS AUUGGUAUUCAGUGUGAUGACAC (SEQ ID NO 21) (listed as RNA, chemistry not given here) [reference compound]”, the “protein level of INF-α” value in series [1] (PBMC supernatant) amounted to 708 pg/mL.

“Rag1-40-5: saRNA duplex: sense mCmCAACUCAUUCUCCAAGmUmC (SEQ ID NO 5); antisense UACUfUGGAGAAfUGAGUfUGG*fC*A (SEQ ID NO 10) (sense CCAACUCAUUCUCCAAGUC; antisense UACUUGGAGAAUGAGUUGGCA; 2'-OMe, 2'-F, phosphorothioates; modified_base (1)..(19) (1,2,18,19)=2′-O-methyl(2′-OMe); modified_base (5)..(20) (5,12,17,20)=2′-fluoro; modified_base (19)..(21) (19,20,21)=phosphorothioate (PS) backbone modification)”: the “immunostimulatory activity (INF-α) compared with Rag1-40, in words” value in series [1] is “reduced immunostimulatory activity”. The “off-target effect compared to unmodified Rag1-40, in words” value in series [2] is “completely inhibited”.

With “Rag1-40-8: saRNA duplex: sense mCmCAACUCAUUCUCCAAGmUmC (SEQ ID NO 5); antisense fUactfUGGAGAAfUGAGfUfUGG*fC*A (SEQ ID NO 13) (sense CCAACUCAUUCUCCAAGUC; antisense UACTUGGAGAAUGAGUUGGCA; 2'-OMe, 2'-F, phosphorothioates, DNA residues; modified_base (1)..(19) (1,2,18,19)=2′-O-methyl(2′-OMe); modified_base (1)..(17) (1,2,9,13,14,17)=2′-fluoro; (1)..(21) (1,5,6,7,8,9,10,11,12,13,14,15,1,61,7,18,19,20, 21)=RNA; (2)..(4) (2,3,4)=DNA; modified_base (16)..(18) (16,17,18)=phosphorothioate (PS) backbone modification)”, in series [1], the “immunostimulatory activity (INF-α) compared with Rag1-40, in words” value was “reduced immunostimulatory activity”. The “suppression of cellular proliferation, in words” value (“suppression” below) in series [3] and in series [5] was “weakens the activity of the saRNA duplex to suppress cellular proliferation” in each case. Further, the “degradation of duplex at 96 hours” value in series [4] is recorded as “little or no signs of degradation”. For the same substance, the “off-target effect compared to unmodified Rag1-40, in words” value in series [2] is reported as “mitigated or similar off-target effects”.

Take “Rag1-40-9: saRNA duplex: sense fCfCAACUCAUUCUCCAAGfUfC (SEQ ID NO 14); antisense fUAfCfUfUGGAGAAfUGAGfUfUGGfCA (SEQ ID NO 6) (sense CCAACUCAUUCUCCAAGUC; antisense UACUUGGAGAAUGAGUUGGCA; 2'-F modifications; modified_base (1)..(19) (1,2,18,19)=2′-fluoro; modified_base (1)..(20) (1,3,4,5,12,16,17,20)=2′-fluoro)”: the “immunostimulatory activity (INF-α) compared with Rag1-40, in words” value in series [1] is on record as “reduced immunostimulatory activity”. In addition, the “degradation of duplex at 96 hours” value in series [4] was “little or no signs of degradation”. Further, the “off-target effect compared to unmodified Rag1-40, in words” value in series [2] is “mitigated or similar off-target effects”.

In the case of “Rag1-40-13: saRNA duplex: sense fCfCAACUCAUUCUCCAAGfUfC (SEQ ID NO 14); antisense UACUfUGGAGAAfUGAGUfUGG*fC*A (SEQ ID NO 10) (sense CCAACUCAUUCUCCAAGUC; antisense UACUUGGAGAAUGAGUUGGCA; 2'-F modifications, phosphorothioates; modified_base (1)..(19) (1,2,18,19)=2′-fluoro; modified_base (5)..(20) (5,12,17,20)=2′-fluoro; modified_base (19)..(21) (19,20,21)=phosphorothioate (PS) backbone modification)”, the “immunostimulatory activity (INF-α) compared with Rag1-40, in words” value in series [1] was “reduced immunostimulatory activity”. The “off-target effect compared to unmodified Rag1-40, in words” value in series [2] is “mitigated or similar off-target effects”.

As for “Rag1-40-15: saRNA duplex: sense fCfCAACUCAUUCUCCAAGfUfC (SEQ ID NO 14); antisense U*A*fCfUfUGGAGAAfUGAGfUfUGG*fC*A (SEQ ID NO 12) (sense CCAACUCAUUCUCCAAGUC; antisense UACUUGGAGAAUGAGUUGGCA; 2'-F modifications, phosphorothioates; modified_base (1)..(19) (1,2,18,19)=2′-fluoro; modified_base (2)..(21) (2,3,19,20,21)=phosphorothioate (PS) backbone modification; modified_base (3)..(20) (3,4,5,12,16,17,20)=2′-fluoro)”, in series [1], the “immunostimulatory activity (INF-α) compared with Rag1-40, in words” value was “reduced immunostimulatory activity”. Further, the “degradation of duplex at 96 hours” value in series [4] is listed as “little or no signs of degradation”. Further, in series [2], the “off-target effect compared to unmodified Rag1-40, in words” value was “mitigated or similar off-target effects”.

“Rag1-40-24: saRNA duplex: sense mCmCAACUCAUUCUCCAAG*U*C (SEQ ID NO 15); antisense fUactfUGGAGAAfUGAGfUfUGG*fC*A (SEQ ID NO 13) (sense CCAACUCAUUCUCCAAGUC; antisense UACTUGGAGAAUGAGUUGGCA; 2'-OMe, 2'-F, phosphorothioates, DNA residues; modified_base (1)..(2) (1,2)=2′-O-methyl(2′-OMe); modified_base (17)..(19) (17,18,19)=phosphorothioate (PS) backbone modification; modified_base (1)..(17) (1,2,9,13,14,17)=2′-fluoro; (1)..(21) (1,5,6,7,8,9,10,11,12,13,14,15,1,61,7,18,19,20, 21)=RNA; (2)..(4) (2,3,4)=DNA; modified_base (16)..(18) (16,17,18)=phosphorothioate (PS) backbone modification)”: the “suppression” value in series [3] and in series [5] was “weakens the activity of the saRNA duplex to suppress cellular proliferation” in each case. In addition, the “degradation of duplex at 96 hours” value in series [4] is listed as “little or no signs of degradation”. Besides, the “off-target effect compared to unmodified Rag1-40, in words” value in series [2] is listed as “completely inhibited”.

For “Rag1-40-27: saRNA duplex: sense fCfCAACUCAUUCUCCAAG*U*C (SEQ ID NO 16); antisense fUmAfCfUfUmGmGmAmGmAmAfUmGmAmGfUfUmGmGfCmA (SEQ ID NO 8) (sense fCfCrArArCrUrCrArUrUrCrUrCrCrArArG*rU*rC)”, in series [1], the “immunostimulatory activity (INF-α) compared with Rag1-40, in words” value was “reduced immunostimulatory activity”. For the same substance, the “suppression” value in series [3] and in series [5] was “negatively affects proliferation suppression activity” throughout. In addition, the “degradation of duplex at 96 hours” value in series [4] is on record as “little or no signs of degradation”. Moreover, the “off-target effect compared to unmodified Rag1-40, in words” value in series [2] is on record as “completely inhibited”.
